From patent US20120238615A1, “Alpha adrenergic receptor modulators” (Allergan, Inc., priority 2009, published 2012) come the findings set out here.

Each structure is given as a SMILES string.

The target of this test is T1, alpha-2C (Homo sapiens, UniProt P18825).
T1 construct: expressed in transfected cells
T1 sequence (P18825 1-462): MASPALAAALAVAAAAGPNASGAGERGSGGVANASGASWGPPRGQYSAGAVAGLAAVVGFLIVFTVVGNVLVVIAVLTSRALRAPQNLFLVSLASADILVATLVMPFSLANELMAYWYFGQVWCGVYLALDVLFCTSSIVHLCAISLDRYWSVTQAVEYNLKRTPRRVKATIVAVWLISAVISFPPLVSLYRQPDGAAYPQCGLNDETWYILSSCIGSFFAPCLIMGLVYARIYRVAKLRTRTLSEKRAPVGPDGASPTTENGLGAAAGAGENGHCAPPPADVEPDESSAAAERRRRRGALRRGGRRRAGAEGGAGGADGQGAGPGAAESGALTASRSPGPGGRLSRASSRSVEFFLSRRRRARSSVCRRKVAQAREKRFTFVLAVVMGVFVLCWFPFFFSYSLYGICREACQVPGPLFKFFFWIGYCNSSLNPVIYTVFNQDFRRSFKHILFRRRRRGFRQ
Kind of test: FLIPR calcium assay for alpha adrenergic activity. It counts as cell-based. As to conditions: cells expressing alpha-2C and G-protein (Gqi5 or G16); for EC50: fluo-4 calcium signal, agonist, read-out: Potency (nM) Alpha 2C (EC50); for efficacy Alpha 2C (relative efficacy compared to a standard full agonist, in parentheses): relative to norepinephrine. The source says: Compounds described herein were synthesized and tested for alpha adrenergic activity using a Fluorometric Imaging plate Reader (FLIPR) assay (Princen et al., 2003, Cytometry Part A. 51, pp. 35-45). Cells expressing the receptor of interest (alpha-2C) and a G-protein (Gqi5 or G16) are loaded with fluo-4, a calcium sensitive dye. After removal of excess dye by washing, the cells are placed in the FLIPR TETRA instrument. Baseline fluorescence readings are taken prior to addition of the compounds. Agonists will trigger the receptor to interact with the G-protein, leading to an increase in intracellular calcium. The increase in intracellular calcium causes an increase in the fluorescence of the cells, due to the presence of fluo-4. This fluorescence increase is recorded by the FLIPR TETRA. After the calcium transient signal has decreased towards baseline, the standard agonist norepinephrine is added. If the compound is an antagonist, an initial calcium signal will not be generated and the antagonist will prevent the generation of a calcium signal from norepinephrine. The level of fluorescence is compared to that of norepinephrine, and the EC50 of the compound determined by curve fitting. […] The compounds described herein activate alpha adrenergic receptors.

By EC50 is commonly meant the concentration that produces a half-maximal response. Consider `Cc1ccccc1NC1=NCCC1` [Compound 13, N-(2-methylphenyl)-3,4-dihydro-2H-pyrrol-5-amine], for which the EC50 amounted to 743 nM and the “efficacy Alpha 2C (relative efficacy compared to a standard full agonist, in parentheses)” value (shortened to “relative efficacy”) was “(1)”.

`Cc1cccc(C)c1NC1=NCCC1` [Compound 15, N-(2,6-dimethylphenyl)-3,4-dihydro-2H-pyrrol-5-amine]: the EC50 was found to be 348 nM and the “relative efficacy” value is listed as “(1)”.

Turning to `Fc1c(Cl)cccc1NC1=NCCC1` [Compound 6, N-(3-chloro-2-fluorophenyl)-3,4-dihydro-2H-pyrrol-5-amine], the EC50 was 26 nM and the “relative efficacy” value is “(1)”.

Take `Clc1ccccc1NC1=NCCC1` [Compound 11, N-(2-chlorophenyl)-3,4-dihydro-2H-pyrrol-5-amine]: the EC50 was 709 nM and the “relative efficacy” value was “(1)”.

Consider `Cc1cccc(NC2=NCCC2)c1Cl` [Compound 4, N-(2-chloro-3-methylphenyl)-3,4-dihydro-2H-pyrrol-5-amine], for which the EC50 amounted to 635 nM and the “relative efficacy” value is “(1)”.

On to `Cc1cccc(NC2=NCCC2)c1C` [Compound 16, N-(2,3-dimethylphenyl)-3,4-dihydro-2H-pyrrol-5-amine], for which the EC50 worked out at 118 nM and the “relative efficacy” value is listed as “(1)”.

Regarding `Cc1c(Br)cccc1NC1=NCCC1` [Compound 10, N-(3-bromo-2-methylphenyl)-3,4-dihydro-2H-pyrrol-5-amine], the EC50 was 288 nM and the “relative efficacy” value is listed as “(1)”.

For `COc1cccc(NC2=NCCC2)c1C` [Compound 8, N-(3-methoxy-2-methylphenyl)-3,4-dihydro-2H-pyrrol-5-amine], the EC50 was determined as 186 nM and the “relative efficacy” value is “(1)”.

Consider `Clc1cccc(Cl)c1NC1=NCCC1` [Compound 12, N-(2,6-dichlorophenyl)-3,4-dihydro-2H-pyrrol-5-amine], for which the EC50 was 44 nM and the “relative efficacy” value was “(1)”.

For `COc1c(C)cccc1NC1=NCCC1` [Compound 5, N-(2-methoxy-3-methylphenyl)-3,4-dihydro-2H-pyrrol-5-amine], the concentration for a half-maximal effect (EC50) was 243 nM and the “relative efficacy” value is reported as “(1)”.

With `Cc1c(F)cccc1NC1=NCCC1` [Compound 9, N-(3-fluoro-2-methylphenyl)-3,4-dihydro-2H-pyrrol-5-amine], the EC50 came out at 756 nM and the “relative efficacy” value is listed as “(1)”.

As for `Cc1c(Cl)cccc1NC1=NCCC1` [Compound 3, N-(3-chloro-2-methylphenyl)-3,4-dihydro-2H-pyrrol-5-amine], the EC50 was 71 nM and the “relative efficacy” value is recorded as “(1)”.

Turning to `FC(F)(F)c1ccccc1NC1=NCCC1` [Compound 14, N-[2-(trifluoromethyl)phenyl]-3,4-dihydro-2H-pyrrol-5-amine], the EC50 was found to be 796 nM and the “relative efficacy” value is on record as “(1)”.

On to `COc1cccc(NC2=NCCC2)c1Br` [Compound 7, N-(2-bromo-3-methoxyphenyl)-3,4-dihydro-2H-pyrrol-5-amine], for which the EC50 was determined as 32 nM and the “relative efficacy” value was “(1)”.

As to `COc1c(Cl)cccc1NC1=NCCC1` [Compound 2, N-(3-chloro-2-methoxyphenyl)-3,4-dihydro-2H-pyrrol-5-amine], the EC50 amounted to 975 nM and the “relative efficacy” value is “(1)”.

For the compound `Cc1cccc(NC2=NCCC2)c1Br` [Compound 1, N-(2-bromo-3-methyl-phenyl)-3,4-dihydro-2H-pyrrol-5-amine], the EC50 was found to be 663 nM and the “relative efficacy” value is recorded as “(1)”.
